Structures can show the parent of a compound that is named as a salt.
Experiments:
[1] = in vivo; details: mouse, ip
[2] = for Therapeutic range, absolute (LD 50 / ED 50%): LD 50 i.p. mice, ED 50% i.v. rats; for Therapeutic range (LD 50 / ED 50%), times greater than propranolol: comparison with propranolol; for Therapeutic range, relative (Propranolol = 1.00): relative to propranolol
Description: Isoproternol was administered before, and 5 minutes after, the intravenous administration of the test substances.

[3] = tested on: isoproterenol-induced tachycardia (β1); test: β1-sympatholytic action: inhibition of isoproterenol-induced tachycardia in pithed rats; format: in vivo, rats (Sprague-Dawley, Rattus norvegicus); details: for ED50: Rattus norvegicus, 5 min, isoproterenol 0.1 ug/kg i.v. before and 5 minutes after test substance, read-out: β1-sympatholytic action ED 50% (dose which inhibits the isoproterenol-induced tachycardia by 50%); for β1-sympatholytic activity, times greater than propranolol: comparison with propranolol
Description: The β-sympatholytic action was tested on rats, in comparison with the known β-sympatholytic agent propranolol (1-isopropylamino)-1-naphthyloxy-2-propanol.HC1).
^1 Inhibition of isoproterenolinduced tachycardia in pithed rats.
Intravenous administration
^2 Dose which inhibits the isoproterenolinduced tachycardia by 50%

Structure (SMILES) | LD50 at 24 h [1] | Therapeutic range, absolute (LD 50 / ED 50%) [2] | Therapeutic range (LD 50 / ED 50%), times greater than propranolol [2] | Therapeutic range, relative (Propranolol = 1.00) [2] | ED50 ([3]; intravenous, pithed rats) | β1-sympatholytic activity, times greater than propranolol [3] | R.A. (relative activity, Propranolol = 1.00), β1-sympatholytic action ([3]; intravenous, pithed rats, relative to propranolol)
CC(C)NCC(O)COc1ccccc1-c1ccc[nH]1 (stereo not shown) [Example III, 2-[2-(3-isopropylamino-2-hydroxypropoxy)-phenyl]-pyrrole fumarate hemihydrate] | 97.2 mg/kg | 452 | 4 times | 4.07 | 0.004 mg/kg | 3.2 times | –
CC(C)(C)NCC(O)COc1ccccc1-c1ccc[nH]1.O=C(O)/C=C/C(=O)O (stereo not shown) [Example II, 2-[2-(3-tert.-butylamino-2-hydroxypropoxy)-phenyl]-pyrrole fumarate] | 165 mg/kg | 767 | 7 times | 6.91 | 0.00227 mg/kg | 5.6 times | –
CC(C)NCC(O)COc1cccc2ccccc12 (stereo not shown) [Propranolol, reference compound] | – | – | – | – | – | – | 1.00
